This note sets out measurements from PubChem BioAssay (NCI).

Molecules are shown by their SMILES.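 Method: 48-hour compound exposure of cells in 96-well plates, five concentrations, linear interpolation of endpoints. GI50 marks 50% less growth. TGI: concentration producing complete growth inhibition.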

Among the test systems are SNB-19 CNS; NCI-H522 lung; UACC-62 melanoma; SF-268 CNS; M14 melanoma; U251 CNS; SK-MEL-2 melanoma; MCF7 breast; MDA-MB-231 breast; MALME-3M melanoma.
Holding throughout (assay): NCI tumour cell line growth inhibition, 48 h

For the molecule `O=c1cccc(C#CC#C[C@@H]2O[C@H]2CO)o1`, the GI50 in the test on SNB-19 CNS was 3.36 µM; in the test with NCI-H522 lung, 0.814 µM; in the test on UACC-62 melanoma it was 0.477 µM; in the test on SF-268 CNS it was 1.78 µM; with M14 melanoma, 0.414 µM; in the test with U251 CNS, 1.46 µM. Also, the GI50 is 2.2 µM with SK-MEL-2 melanoma, 0.525 µM with MCF7 breast and 0.233 µM in the test with MDA-MB-231 breast. The TGI is 12 µM with SNB-19 CNS; 1.1 µM with UACC-62 melanoma; 3.91 µM in the test with SF-268 CNS; 3.07 µM in the test on U251 CNS; 1.36 µM in the test on MCF7 breast; 0.877 µM with MDA-MB-231 breast.
Turning to `CNc1nc(N)nc(Nc2ccc(I)cc2)c1N=O`, the TGI with SNB-19 CNS, in the test on NCI-H522 lung, in the test with UACC-62 melanoma, with SF-268 CNS, in the test on MALME-3M melanoma and in the test on SK-MEL-2 melanoma was over 100 µM throughout. Moreover, the TGI in the test on MCF7 breast and in the test on MDA-MB-231 breast was over 100 µM each time.
In the case of `COc1ccc(-c2cc(=O)oc3c4c(ccc23)OCN(Cc2ccc(F)cc2)C4)cc1`, the GI50 in the test on SNB-19 CNS was 15.6 µM; with NCI-H522 lung, 16.6 µM; in the test on UACC-62 melanoma it was 14.7 µM; with SF-268 CNS, 16.6 µM; with MALME-3M melanoma, 15.4 µM; in the test on U251 CNS it was 14.8 µM. Besides, the GI50 in the test with SK-MEL-2 melanoma was 16.3 µM; in the test on MCF7 breast it was 15.7 µM; in the test with MDA-MB-231 breast it was 18.5 µM. The TGI was determined as 36.4 µM in the test on SNB-19 CNS; 33.6 µM with NCI-H522 lung; 29.3 µM in the test with UACC-62 melanoma; 34.8 µM with SF-268 CNS; 32.7 µM with MALME-3M melanoma; 29 µM in the test with U251 CNS. Besides, the TGI in the test on SK-MEL-2 melanoma was found to be 31.3 µM; in the test with MCF7 breast it was 34.5 µM; with MDA-MB-231 breast, 40.2 µM.
Take `COc1c(C)c(OCC=C(C)C)cc(CO)c1CO`: the TGI in the test with SNB-19 CNS, in the test on NCI-H522 lung, with UACC-62 melanoma, in the test on SF-268 CNS, in the test on M14 melanoma and in the test with U251 CNS was over 100 µM throughout. The TGI in the test on SK-MEL-2 melanoma, with MCF7 breast and with MDA-MB-231 breast was over 100 µM each time.
Regarding `CO[C@@H]1CC[C@]2(C)OC[C@H](C)[C@@H]3C[C@@H](C)[C@@H](OC(C)=O)[C@@H]4[C@H]3[C@@H]2O[C@H]4C[C@@]1(C)O`, the GI50 in the test with SNB-19 CNS is over 100 µM; with NCI-H522 lung, over 100 µM; with UACC-62 melanoma it was over 100 µM; in the test on SF-268 CNS it was over 100 µM; in the test with MALME-3M melanoma it was 63.9 µM; in the test on U251 CNS, over 100 µM. In addition, the GI50 in the test with SK-MEL-2 melanoma, with MCF7 breast and with MDA-MB-231 breast was over 100 µM each time. Also, the TGI with SNB-19 CNS, in the test on NCI-H522 lung, in the test on UACC-62 melanoma, in the test on SF-268 CNS, in the test on MALME-3M melanoma and with U251 CNS was over 100 µM in each case. The TGI in the test on SK-MEL-2 melanoma, in the test on MCF7 breast and in the test with MDA-MB-231 breast was over 100 µM each time.
`NCCCn1c2c(c3ccc([N+](=O)[O-])cc3c1=O)C(=O)c1cc(I)ccc1-2`: the GI50 is under 0.01 µM in the test on SNB-19 CNS; under 0.01 µM with UACC-62 melanoma; 0.0841 µM with SF-268 CNS; 0.228 µM in the test on MALME-3M melanoma; 0.0315 µM with M14 melanoma; under 0.01 µM in the test on U251 CNS. Also, the GI50 is 0.649 µM with SK-MEL-2 melanoma, under 0.01 µM with MCF7 breast and 1.8 µM with MDA-MB-231 breast. For the same molecule, the TGI worked out at 1.61 µM in the test on SNB-19 CNS; 1.21 µM in the test on UACC-62 melanoma; 3.43 µM with SF-268 CNS; 1.86 µM in the test with MALME-3M melanoma; 1.32 µM in the test with M14 melanoma; 1.39 µM in the test on U251 CNS. Further, the TGI is 2.28 µM with SK-MEL-2 melanoma, 0.517 µM in the test with MCF7 breast and 3.48 µM in the test with MDA-MB-231 breast.
As for `NC(N)=Nc1nc2ccccc2o1`, the GI50 in the test with SNB-19 CNS, in the test with UACC-62 melanoma, with SF-268 CNS, in the test with MALME-3M melanoma, with M14 melanoma and in the test on U251 CNS was over 100 µM throughout. The GI50 with SK-MEL-2 melanoma, in the test with MCF7 breast and with MDA-MB-231 breast was over 100 µM each time. Besides, the TGI with SNB-19 CNS, in the test with UACC-62 melanoma, in the test on SF-268 CNS, in the test on MALME-3M melanoma, in the test with M14 melanoma and with U251 CNS was over 100 µM in each case. For the same molecule, the TGI in the test with SK-MEL-2 melanoma, in the test on MCF7 breast and in the test on MDA-MB-231 breast was over 100 µM throughout.
